Experimental data from the NIST ThermoML archive (doi:10.1016/j.jct.2008.08.011).

Experiment: osmotic coefficient (dimensionless); mn = molality of the nth substance listed, in mol/kg
Conditions: 101 kPa, Liquid, Knauer K-7000 vapour pressure osmometer

CCn1cc[n+](C)c1.[Cl-] [1-ethyl-3-methylimidazolium chloride] + O
osmotic coefficient
Conditions	313.15 K	333.15 K
m1 = 0.1847	0.97	0.936
m1 = 0.3033	0.949	0.918
m1 = 0.3896	0.941	0.896
m1 = 0.5094	0.923	0.865
m1 = 0.7105	0.895	0.847
m1 = 1.047	0.861	0.812
m1 = 1.294	0.842	0.801
m1 = 1.678	0.835	0.79
m1 = 2.113	0.831	0.784
m1 = 2.49	0.829	0.788
m1 = 2.947	0.844	0.797
m1 = 3.237	0.852	0.809
m1 = 3.722	0.885	0.831
m1 = 4.113	0.921	0.855

CCOS(=O)(=O)[O-].CC[n+]1cccc(C)c1 [1-ethyl-3-methylpyridinium ethylsulfate] + O
osmotic coefficient
Conditions	313.15 K	333.15 K
m1 = 0.1419	0.956	0.948
m1 = 0.2108	0.927	0.925
m1 = 0.3168	0.897	0.887
m1 = 0.3829	0.873	0.864
m1 = 0.5036	0.846	0.836
m1 = 0.6837	0.828	0.811
m1 = 1.034	0.813	0.784
m1 = 1.326	0.808	0.782
m1 = 1.726	0.807	0.782
m1 = 2.11	0.813	0.792
m1 = 2.501	0.826	0.802
m1 = 2.892	0.843	0.809
m1 = 3.303	0.859	0.817

CCCCCCn1cc[n+](C)c1.[Cl-] [1-hexyl-3-methylimidazolium chloride] + CCO
osmotic coefficient
Conditions	313.15 K	333.15 K
m1 = 0.0583	0.955	0.742
m1 = 0.0975	0.92	0.714
m1 = 0.4274	0.735	0.608
m1 = 0.6999	0.695	0.584
m1 = 1.014	0.677	0.568
m1 = 1.354	0.662	0.561
m1 = 1.597	0.659	0.558
m1 = 1.924	0.652	0.551
m1 = 2.211	0.648	0.553
m1 = 2.579	0.636	0.544
m1 = 2.859	0.635	0.544
m1 = 3.272	0.628	0.535

CCCCn1cc[n+](C)c1.[Cl-] [1-butyl-3-methylimidazolium chloride] + CCO
osmotic coefficient
Conditions	313.15 K	333.15 K
m1 = 0.1278	1.02	0.782
m1 = 0.3749	0.887	0.709
m1 = 0.6198	0.802	0.666
m1 = 0.7747	0.783	0.647
m1 = 1.096	0.742	0.63
m1 = 1.437	0.717	0.613
m1 = 1.904	0.685	0.589
m1 = 2.318	0.68	0.576
m1 = 2.688	0.657	0.566
m1 = 3.018	0.653	0.553
m1 = 3.348	0.66	0.55
m1 = 3.521	0.66	0.548
